Bridge positions count the residues as written; N and C are the ends. Square brackets hold non-standard residues; d marks the D form. Triazole bridges read from a SMILES are 1,4-linked. Peptide text beside a SMILES is read from it. Dap(N3) = [N-]=[N+]=NC[C@H](N)C(=O)O; Pra = C#CC[C@H](N)C(=O)O
What was measured:
[1] = molecular target: α-chymotrypsin (Bos taurus, UniProt P00766); conditions: pH 7.4
[2] = pH 7.4

Structure (SMILES): NCCCC[C@@H]1NC(=O)[C@@H](Cc2c[nH]c3ccccc23)NC(=O)[C@@H]2CCCN2C(=O)[C@@H](NC(=O)[C@H](CC(=O)O)NC(=O)CN)Cn2cc(nn2)C[C@@H](C(N)=O)NC(=O)[C@H](Cc2c[nH]c3ccccc23)NC(=O)[C@@H]2CCCN2C1=O [Compound 14, [Ala1(&^1),Ala7(&^2)]contryphan-Vn[1,9][(&^1-1,4-[1,2,3]-triazolyl-&^2)]] (H-GD[Dap(N3)]P[dW]KPW[Pra]-NH2; triazole 3-9)
- Difference of protease stability versus native model peptide contryphan-Vn [1]: No significant differences
- Protease stability under α-chymotrypsin treatment (percent residual peptide) [1]: degraded completely
- Reduction stability in aqueous DTT solution (percent residual peptide) [2]: remained intact

Structure (SMILES): NCCCC[C@@H]1NC(=O)[C@@H](Cc2c[nH]c3ccccc23)NC(=O)[C@@H]2CCCN2C(=O)[C@@H](NC(=O)[C@H](CC(=O)O)NC(=O)CN)CSSC[C@@H](C(N)=O)NC(=O)[C@H](Cc2c[nH]c3ccccc23)NC(=O)[C@@H]2CCCN2C1=O [contryphan-Vn, Contryphan-Vn[1,9], reference compound] (H-GDCP[dW]KPWC-NH2; disulfide 3-9)
- Protease stability under α-chymotrypsin treatment (percent residual peptide) [1]: degraded completely
- Reduction stability in aqueous DTT solution (percent residual peptide) [2]: completely reduced
